This is an account of results in US20240245670A1, “DOSING REGIMEN AND PHARMACEUTICAL COMBINATION COMPRISING 3-(1-OXOISOINDOLIN-2-YL)PIPERIDINE-2,6-DIONE DERIVATIVES” (Novartis AG, priority 2018, published 2024).

For data set [1], the system named is isolated primary human T cells. The experiment in a line: In vitro T cell dysfunction/exhaustion assay by sequential TCR stimulation (FIG. 2D). The class given is cell-based. As to conditions: Teff cells; 2.5 nM, 25 nM and 2.5 μM. An excerpt:
(§1) FIG. 2C is a bar graph showing the suppressive potency of Treg cells expanded in the presence of Compound I-57.
(§2) Although the specific transcriptional targets of IKZF2 remain to be defined, IKZF2 binds to and represses transcription from the IL-2 promoter region (Baine 2013). […] Finally, an in vitro assay recapitulating hallmarks of T cell dysfunction/exhaustion, by sequential TCR stimulation of isolated primary human T cells, was used to test the hypothesis that […] would rescue the exhausted phenotype and enhance Teff cell activity. […] In addition to IKZF1, other known cereblon substrates including translation termination factor G1 to S phase transition 1 (GSPT1) are not degraded by I-57 (FIG. 1).

Another data set deals with IKZF2 (Homo sapiens, UniProt Q96SW2+Q9UKS7). The experiment in a line: IKZF2 protein in total tumor-infiltrating lymphocytes by immunohistochemistry, hPBMC AdT model (FIG. 8). Type of data set: in vivo. More on the design: endogenous in cells; host or cells: primary human PBMCs / primary Treg cells. Particulars: 24 h post the 14th daily dose. Here is the method: FIG. 8A is a bar graph showing the change in the IKZF2 protein levels in total tumor-infiltrating lymphocytes by immunohistochemistry (IHC) at 24 h post the 14th daily dose of 1, 3 or 30 mg/kg Compound I-57.
Sequence of IKZF2 (Q9UKS7 whole entry): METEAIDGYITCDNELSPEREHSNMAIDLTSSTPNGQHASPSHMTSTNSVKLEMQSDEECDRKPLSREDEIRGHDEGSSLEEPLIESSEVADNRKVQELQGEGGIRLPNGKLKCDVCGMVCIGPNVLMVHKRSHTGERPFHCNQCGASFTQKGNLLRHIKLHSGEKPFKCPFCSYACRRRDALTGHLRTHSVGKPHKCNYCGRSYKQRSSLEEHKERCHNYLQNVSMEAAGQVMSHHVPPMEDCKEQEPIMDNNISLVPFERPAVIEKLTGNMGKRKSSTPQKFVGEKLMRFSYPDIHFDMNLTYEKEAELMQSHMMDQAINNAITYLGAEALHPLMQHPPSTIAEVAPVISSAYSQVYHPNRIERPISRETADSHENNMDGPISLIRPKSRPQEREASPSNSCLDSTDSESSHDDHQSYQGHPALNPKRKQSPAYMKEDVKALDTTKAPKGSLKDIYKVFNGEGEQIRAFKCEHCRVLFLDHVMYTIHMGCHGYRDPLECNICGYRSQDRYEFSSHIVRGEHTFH
Sequence of IKZF2 (Q96SW2 whole entry): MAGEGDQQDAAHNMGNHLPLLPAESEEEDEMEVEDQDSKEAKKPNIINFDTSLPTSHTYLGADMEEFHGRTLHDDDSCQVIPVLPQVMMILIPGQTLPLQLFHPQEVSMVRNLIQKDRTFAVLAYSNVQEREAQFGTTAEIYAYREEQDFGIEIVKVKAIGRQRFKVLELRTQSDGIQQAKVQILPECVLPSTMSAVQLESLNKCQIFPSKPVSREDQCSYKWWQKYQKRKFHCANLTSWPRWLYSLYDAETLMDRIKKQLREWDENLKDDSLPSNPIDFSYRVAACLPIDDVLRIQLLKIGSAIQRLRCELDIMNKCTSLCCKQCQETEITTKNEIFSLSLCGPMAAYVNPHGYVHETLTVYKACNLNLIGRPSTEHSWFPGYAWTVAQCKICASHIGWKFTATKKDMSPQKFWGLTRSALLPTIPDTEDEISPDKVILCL
Sequence of IKZF2 (Q16531 whole entry partner): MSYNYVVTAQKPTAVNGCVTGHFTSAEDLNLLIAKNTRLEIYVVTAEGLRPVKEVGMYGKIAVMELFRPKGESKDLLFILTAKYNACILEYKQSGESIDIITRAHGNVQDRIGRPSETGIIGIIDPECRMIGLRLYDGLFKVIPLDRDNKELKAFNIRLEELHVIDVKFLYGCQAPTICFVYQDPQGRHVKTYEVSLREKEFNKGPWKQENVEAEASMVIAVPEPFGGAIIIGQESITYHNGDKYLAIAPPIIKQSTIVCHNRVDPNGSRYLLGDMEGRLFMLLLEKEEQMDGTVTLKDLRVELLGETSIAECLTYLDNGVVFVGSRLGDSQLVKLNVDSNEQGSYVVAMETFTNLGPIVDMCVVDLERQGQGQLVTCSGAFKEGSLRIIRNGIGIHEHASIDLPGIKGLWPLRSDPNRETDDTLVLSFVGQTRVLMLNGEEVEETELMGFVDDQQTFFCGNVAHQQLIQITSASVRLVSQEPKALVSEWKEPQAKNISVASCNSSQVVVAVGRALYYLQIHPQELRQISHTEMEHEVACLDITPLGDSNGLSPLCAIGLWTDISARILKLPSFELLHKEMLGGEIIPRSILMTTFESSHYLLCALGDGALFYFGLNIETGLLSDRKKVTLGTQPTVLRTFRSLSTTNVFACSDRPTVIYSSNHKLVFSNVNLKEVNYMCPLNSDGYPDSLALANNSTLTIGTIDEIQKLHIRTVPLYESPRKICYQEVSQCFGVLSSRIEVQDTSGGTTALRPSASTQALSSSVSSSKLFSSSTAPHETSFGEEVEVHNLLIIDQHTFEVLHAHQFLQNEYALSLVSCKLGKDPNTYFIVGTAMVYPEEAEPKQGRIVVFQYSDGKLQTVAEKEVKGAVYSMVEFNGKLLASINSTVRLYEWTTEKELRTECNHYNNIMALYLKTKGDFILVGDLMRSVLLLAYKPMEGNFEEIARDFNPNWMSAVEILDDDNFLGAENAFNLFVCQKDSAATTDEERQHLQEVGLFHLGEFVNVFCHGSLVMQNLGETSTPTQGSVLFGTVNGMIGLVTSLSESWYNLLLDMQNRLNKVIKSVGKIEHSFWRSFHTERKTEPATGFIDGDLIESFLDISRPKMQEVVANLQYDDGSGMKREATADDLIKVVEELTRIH
IKZF2 protein levels in total tumor-infiltrating lymphocytes were also assessed by immunohistochemistry (IHC) at 24 h post the 14th dose of 1, 3 or 30 mg/kg I-57. […] Overall, IKZF2 degradation assessed by IHC was generally consistent with our findings in Tregs by flow cytometry, though dose dependency was less apparent. Together, the data support the finding of profound I-57-mediated IKZF2 degradation in tumor-infiltrating lymphocytes (FIG. 8A and FIG. 8B).

Another data set deals with T1, rat IKZF2 (Rattus norvegicus, UniProt A0A0G2JVA9).
T1 construct: assessed in primary PBMCs obtained from rabbit, dog, pig, cynomolgus monkey, and human, and in primary splenocytes of mouse and rat; endogenous in cells; host or cells: primary rat splenocytes
T1 sequence (A0A0G2JVA9 1-467): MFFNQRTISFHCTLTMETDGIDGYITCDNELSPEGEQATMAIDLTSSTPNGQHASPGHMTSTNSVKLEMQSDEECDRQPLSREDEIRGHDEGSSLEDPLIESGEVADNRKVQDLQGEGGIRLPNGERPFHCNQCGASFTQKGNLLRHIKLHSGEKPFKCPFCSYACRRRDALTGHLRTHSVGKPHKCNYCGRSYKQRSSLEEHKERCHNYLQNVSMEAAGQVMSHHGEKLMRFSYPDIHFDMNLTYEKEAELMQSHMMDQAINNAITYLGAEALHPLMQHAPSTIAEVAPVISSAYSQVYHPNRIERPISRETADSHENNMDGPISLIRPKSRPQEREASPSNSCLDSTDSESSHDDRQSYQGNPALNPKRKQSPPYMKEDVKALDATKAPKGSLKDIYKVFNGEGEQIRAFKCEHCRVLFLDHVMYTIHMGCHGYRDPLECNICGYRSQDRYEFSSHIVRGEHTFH
T1 sequence (Q56AP7 whole entry partner): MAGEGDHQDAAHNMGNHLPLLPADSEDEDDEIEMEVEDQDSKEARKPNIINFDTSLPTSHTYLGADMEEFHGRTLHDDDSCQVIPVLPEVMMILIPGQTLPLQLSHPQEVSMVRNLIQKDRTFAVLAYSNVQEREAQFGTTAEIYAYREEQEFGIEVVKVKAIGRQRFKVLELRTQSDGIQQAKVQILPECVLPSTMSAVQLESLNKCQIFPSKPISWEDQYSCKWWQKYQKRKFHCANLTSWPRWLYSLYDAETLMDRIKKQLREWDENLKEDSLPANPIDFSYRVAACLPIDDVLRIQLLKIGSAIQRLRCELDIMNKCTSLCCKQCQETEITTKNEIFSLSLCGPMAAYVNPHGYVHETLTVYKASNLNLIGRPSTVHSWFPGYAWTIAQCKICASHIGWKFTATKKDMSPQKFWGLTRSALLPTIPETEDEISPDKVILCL
Description: IKZF2 degradation, species relevance (rat). As to the method:
(§3) The starting dose of I-57 selected for this study is supported by 4-week GLP toxicology studies performed in cynomolgus monkeys. […] GLP toxicity studies identified 30 mg/kg as the HNSTD in monkey and supported a starting dose up to 100 mg QD in human (BSA scaled HED and using a safety factor of 6). The selected dose of 20 mg is anticipated to result in a significant but sub-maximal IKZF2 degradation in human PBMCs and TILs (50-90%), based on PK/PD modeling of I-57 exposure and IKZF2 degradation in cynomolgus PBMCs. More IKZF2 degradation may be required to change downstream biology. Therefore, 20 mg is considered safe. Escalation from this starting dose will facilitate the determination of the minimal required dose which provides optimal IKZF2 degradation to impact downstream biological activity.

The nature of data set [2]: In vivo non-clinical PK / high dose PK. Particulars: mouse; between 3 mg/kg and 100 mg/kg. Here is the method: The in vivo non-clinical PK profile of I-57 was investigated in mouse, rat, dog and cynomolgus monkey using I-57 free base. […] After p.o. administration, the absorption of I-57 was rapid with peak blood concentration (Tmax) occurring between 1 and 4 hours. […] In high dose PK and toxicology studies with I-57 the exposures in mouse, rat and monkey increased with dose.
The binding to plasma protein of I-57 in vitro was moderate in all species, with an observed difference between rodents (73% in mouse, 76% in rat) and non-rodents (52% in dog and monkey, 54% in human). Blood-to-plasma ratios were in the range of 0.7-1.8 (human 1.1-1.3). […] Based on results with non-radiolabeled I-57 in the dog, a significant amount of unchanged I-57 was renally eliminated (˜20% of dose).

For another data set, the target named is T2, TMEM97 (Homo sapiens, UniProt Q5BJF2).
T2 construct: endogenous in cells; host or cells: 293T
T2 sequence (Q5BJF2 whole entry): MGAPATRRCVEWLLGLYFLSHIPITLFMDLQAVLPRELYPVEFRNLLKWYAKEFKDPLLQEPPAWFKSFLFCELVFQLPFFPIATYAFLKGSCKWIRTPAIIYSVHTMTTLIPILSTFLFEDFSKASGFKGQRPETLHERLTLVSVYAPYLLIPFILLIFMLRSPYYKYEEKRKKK
The experiment in a line: Whole cell proteomic analysis in 293T cells. Particulars: nearly 8000 proteins identified. Type of data set: cell-based. As to the method: (§4) Other potential degradation targets of I-57 were evaluated in 293T cells using whole cell proteomic analysis. […] Subsequent analyses have confirmed that FIZ1 is degraded by about 50% at a 10 μM concentration of I-57 ([I-57 Investigator's Brochure]). […] FIZ1 is expressed in the neural retina where it transcriptionally represses the differentiation of photoreceptors. FIZ1 is also expressed in non-ocular tissues with unknown function.

Data set [3] in a line: ECG (QTc interval) in single dose and 4-week GLP repeat dose study. The class given is in vivo, monkey. As to the method: The risk of possible QTc interval prolongation at the starting dose is therefore considered low. QT prolongation may become clinically significant during escalation but are not anticipated to be dose limiting until doses at or above 640 mg. Monitoring and other measures to mitigate potential risk of arrhythmia is addressed in Example 3 below.

A further data set concerns human recombinant CYPs. The experiment in a line: Assessment of enzymes involved in oxidative metabolism using human recombinant CYPs in vitro. Type of data set: in vitro ADME. Particulars: preliminary assessment. As to the method: In vivo in the dog, very minor amounts of the N-dealkylation product and products derived from hydrolysis of the glutarimide moiety were detected in plasma. While the contribution of CYP-mediated oxidative metabolism to systemic clearance is unknown, a preliminary assessment of the enzymes involved was conducted using human recombinant CYPs in vitro.

For another data set, the target named is T3, FIZ1 (Homo sapiens, UniProt Q96SL8+Q96SW2).
T3 construct: endogenous in cells; host or cells: 293T
T3 sequence (Q96SL8 whole entry): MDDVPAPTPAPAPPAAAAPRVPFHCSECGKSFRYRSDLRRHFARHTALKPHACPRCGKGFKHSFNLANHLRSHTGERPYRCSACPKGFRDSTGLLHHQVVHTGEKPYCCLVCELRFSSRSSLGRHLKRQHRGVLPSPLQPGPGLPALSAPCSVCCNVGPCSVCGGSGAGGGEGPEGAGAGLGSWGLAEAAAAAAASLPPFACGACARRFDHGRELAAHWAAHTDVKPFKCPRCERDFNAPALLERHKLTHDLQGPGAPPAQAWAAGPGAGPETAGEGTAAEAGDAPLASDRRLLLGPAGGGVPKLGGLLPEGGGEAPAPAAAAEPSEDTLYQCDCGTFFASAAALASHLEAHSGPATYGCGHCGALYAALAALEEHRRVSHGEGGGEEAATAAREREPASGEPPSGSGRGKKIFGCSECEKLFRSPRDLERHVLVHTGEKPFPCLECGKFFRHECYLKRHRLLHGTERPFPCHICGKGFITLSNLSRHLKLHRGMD
T3 sequence (Q96SW2 whole entry): as the sequence (Q96SW2 whole entry) above
T3 sequence (Q16531 whole entry partner): as the sequence (Q16531 whole entry partner) above
The experiment in a line: Whole cell proteomic analysis in 293T cells and subsequent analyses. The class given is cell-based. Here is the method:
as §4

A further data set concerns primary human Tregs. The experiment in a line: Suppressive potency of Treg cells expanded in vitro in the presence of compound (FIG. 2C). The class given is cell-based.
From the text: as §1, §2

For the next data set, the system named is monkey IKZF2. The experiment in a line: IKZF2 degradation, species relevance (monkey). As to the method:
as §3

Molecules are shown by their SMILES.

As for `O=C1CCC(N2Cc3cc(C4CCN(Cc5ccccc5)CC4)ccc3C2=O)C(=O)N1` (centres unmarked) [Compound I-57, 3-(5-(1-benzylpiperidin-4-yl)-1-oxoisoindolin-2-yl)piperidine-2,6-dione], in [1], the “IFNγ production by IKZF2 positive cells” value is given as “concomitant increase”. Moreover, the “IKZF2 degradation in total tumor-infiltrating lymphocytes (IHC)” value on IKZF2 (30 mg/kg) was “approximately 85%”. In addition, at IKZF2 (1, 3 and 30 mg/kg), the “IKZF2 levels in total tumor-infiltrating lymphocytes (IHC)” value is “Robust reduction in IKZF2 levels”. Further, the “degradation of rat IKZF2” value on rat IKZF2 is “not rat”. Moreover, in data set [2], the “increase in AUC with dose” value is “roughly dose proportional”. Further, the “TMEM97 degradation (proteomics)” value on TMEM97 was “degraded”. In addition, in data set [3] (monkeys at 3 mg/kg), the “free Cmax in monkeys relative to free Cmax predicted at the clinical starting dose of 20 mg” value is 40 times. Also, the QT effects entry in data set [3] (monkeys, 3 mg/kg) is “no QT effects”. Further, the “time of highest magnitude of QTc effect” value in data set [3] (monkeys, coinciding with Tmax) was in the range of 0.5 to 5.5 h. Further, the “enzyme primarily mediating oxidative metabolism” value in the data set on human recombinant CYPs is “CYP3A4”. The FIZ1 degradation entry at FIZ1 (10 μM concentration of I-57) is on record as “about 50%”. For the same compound, the “FIZ1 degradation (proteomics)” value on FIZ1 (293T cells, nearly 8000 proteins identified) is “degraded”. Also, the “proportion of IKZF2-expressing cells” value in the data set on primary human Tregs was “remained unchanged”. Also, the “degradation of monkey IKZF2” value in the data set with monkey IKZF2 is listed as “can degrade monkey”.
